PubChem BioAssay (NCI)
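How tested: cells in 96-well plates exposed to compound for 48 hours at five concentrations. TGI: total growth inhibition.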

Assays:
Assay in all cases: NCI tumour cell line growth inhibition, 48 h
SK-MEL-5 melanoma = test system: SK-MEL-5 melanoma
A549 NSCLC = test system: A549 NSCLC
HCT-15 colon = test system: HCT-15 colon
MOLT-4 leukemia = test system: MOLT-4 leukemia
OVCAR-4 ovarian = test system: OVCAR-4 ovarian
SNB-78 CNS = test system: SNB-78 CNS
M19-MEL melanoma = test system: M19-MEL melanoma
A498 renal = test system: A498 renal
HCC-2998 colon = test system: HCC-2998 colon
DLD-1 colon = test system: DLD-1 colon
M14 melanoma = test system: M14 melanoma
MDA-N = test system: MDA-N

Row | SMILES | TGI (SK-MEL-5 melanoma) | TGI (A549 NSCLC) | TGI (HCT-15 colon) | TGI (MOLT-4 leukemia) | TGI (OVCAR-4 ovarian) | TGI (SNB-78 CNS) | TGI (M19-MEL melanoma) | TGI (A498 renal) | TGI (HCC-2998 colon) | TGI (DLD-1 colon) | TGI (M14 melanoma) | TGI (MDA-N)
1 | CC(C)CCCC(C)[C@H]1CCC(C2C[C@@H](O)[C@@H]3CC(O)[C@@H](O)C[C@]3(CO)C2=O)[C@]1(C)CCO (stereo not given in full) | 18.8 µM | > 96.2 µM | > 66.8 µM | 22.4 µM | > 83.8 µM | 85.5 µM | 39 µM | 48.9 µM | 38.4 µM | > 100 µM |  | 
2 | COC(=O)c1c2c(cc3c1CC1(Cc4cc5c(c(C=O)c4C1)CCC5)C3)CCC2 (stereo not given) | 37.2 µM | > 100 µM | > 100 µM | 59.1 µM | > 100 µM |  |  | > 100 µM | 95.2 µM |  | 75.6 µM | > 100 µM
3 | COc1cc(CCNC2=CC(=O)c3nc[nH]c3C2=O)ccc1O | 27.6 µM | 68.3 µM | > 100 µM | 89.1 µM | 29 µM |  |  | 71 µM | 43 µM |  | 33.5 µM | 32.5 µM
4 | FC1=C2C3CCC(C3)C2C1(F)F (stereo not given) | > 100 µM | > 100 µM | > 100 µM | > 100 µM | > 100 µM |  |  | > 100 µM | > 100 µM |  | > 100 µM | > 100 µM
5 | O=CCCCCCOCc1ccccc1 | > 54.4 µM | > 100 µM | > 100 µM | 37.4 µM | > 100 µM |  |  | > 100 µM | > 100 µM |  | > 100 µM | > 100 µM
6 | COC(=O)c1sc(=O)sc1SCc1cccc(CSc2sc(=O)sc2C(=O)OC)c1 | > 100 µM | > 100 µM | > 100 µM | > 100 µM | 37.7 µM |  |  | > 100 µM | > 100 µM |  | > 100 µM | > 100 µM
7 | CN1CCN(C(=O)c2cn(Cc3cncn3Cc3ccc4c(c3)OCO4)cc2-c2cccc3ccccc23)CC1 | 37.4 µM | > 100 µM | > 100 µM | 33.6 µM | > 100 µM |  |  | 32.1 µM | 27 µM |  | 46 µM | > 100 µM
8 | C/C(=N\Nc1nc2ccccc2s1)c1ccncn1 | 7.08 µM | > 35 µM | 15.9 µM |  | 42.4 µM |  |  | > 100 µM | > 41.9 µM |  | 14.4 µM | > 100 µM
9 | Cc1c(C)c2c(c(N)c1C#N)C(=O)N(N)C2=O | > 100 µM | > 100 µM | > 100 µM | > 100 µM | > 100 µM |  |  | > 100 µM | > 100 µM |  | > 100 µM | > 100 µM
10 | C[n+]1cccc2ccc3cccnc3c21 | 42 µM | > 100 µM | > 100 µM | > 100 µM | > 100 µM |  |  | > 100 µM | > 100 µM |  | > 100 µM | > 100 µM
11 | COP(=O)(OC)OCN(C)CC/C=C(\C)CC/C=C(\C)CCC=C(C)C | 25.3 µM | 40.9 µM | 30.3 µM | 28.9 µM | > 100 µM |  |  | > 100 µM | 23.8 µM |  | 28 µM | 29.3 µM
12 | Cn1/c(=N\N=C2\C=C3CCCCC3(C)CC2)sc2ccccc21 (stereo not given) | > 100 µM | > 100 µM | > 100 µM |  | > 100 µM |  |  | > 100 µM | > 100 µM |  | > 100 µM | > 100 µM
13 | COC(=O)C1=C(CCCCO[Si](C)(C)C(C)(C)C)NC(=O)N2[C@H](CCOCc3ccccc3)CC[C@@H]12 | 28.3 µM | > 100 µM | > 100 µM | > 100 µM | > 100 µM |  |  | > 100 µM | > 100 µM |  | > 100 µM | > 100 µM
14 | CC(Nc1ccc(Cl)cc1)c1ccncc1 (stereo not given) | > 100 µM | > 100 µM | > 100 µM | > 100 µM | > 100 µM |  |  | > 100 µM | > 100 µM |  | > 100 µM | > 100 µM
15 | COC(=N)C1(C#N)NC(c2ccsc2)C(C#N)(C#N)NC1c1ccsc1 (stereo not given) | > 100 µM | > 100 µM | > 100 µM | > 100 µM | > 100 µM |  |  | > 100 µM | > 100 µM |  | > 100 µM | > 100 µM
16 | COc1cc2c[n+]3c4c(c2c(OC)c1OC)CCCC4CC3 (stereo not given) | 46.9 µM | > 100 µM | > 100 µM | > 100 µM | > 100 µM |  |  | > 100 µM | > 100 µM |  | > 100 µM | > 100 µM
17 | Clc1ccc2c(c1)N(CCCN1CCCC13CCCCC3)c1ccccc1S2 | > 56 µM | 40.2 µM | 42.5 µM | 18.9 µM | 41.7 µM |  |  | 33.2 µM | 8.64 µM |  | 27.3 µM | 26.2 µM
18 | CC(=O)CC1(CBr)Nc2ccc([N+](=O)[O-])cc2NC1=O (stereo not given) | > 100 µM | > 100 µM | > 100 µM | > 100 µM | > 100 µM |  |  | > 100 µM | > 100 µM |  | > 100 µM | > 100 µM
19 | C[C@]12CC[C@H]3[C@@H](CC=C4C[C@@H](N5CCCC5)CC[C@@]43C)[C@@H]1C[C@H](N1CCCCC1)[C@@H]2O | > 100 µM | > 100 µM | > 100 µM | > 100 µM | > 100 µM |  |  | > 100 µM | > 100 µM |  | 40.4 µM | > 100 µM
20 | Cn1c(=O)c2c(nc3[nH]c(=O)c(Br)cn32)n(C)c1=O | > 100 µM | > 100 µM | > 100 µM | > 100 µM | > 100 µM |  |  | > 100 µM | > 100 µM |  | > 100 µM | > 100 µM
21 | N#Cc1ccccc1NC(=O)C(=O)C(C(=O)c1ccccc1F)C1OC(=O)c2ccccc21 (stereo not given) | > 100 µM | > 100 µM | > 100 µM | > 100 µM | > 100 µM | 90.2 µM | > 100 µM | > 100 µM | 53.4 µM | > 100 µM | > 100 µM | 
